{"source": "DBAASP", "experiment_in_all_cases": "≥ marks a high value that may be exact or a test limit, other limits are often not marked, values filed in µg/mL are converted to µM", "key": {"[1]": {"tested_on": "Salmonella enterica subsp. enterica serovar Enteritidis ATCC 13076"}, "[2]": {"tested_on": "Lactococcus lactis ATCC 11454"}, "[3]": {"tested_on": "Staphylococcus aureus ATCC 25923"}, "Staphylococcus aureus": {"tested_on": "Staphylococcus aureus"}, "Bacillus anthracis": {"tested_on": "Bacillus anthracis"}, "Bacillus licheniformis": {"tested_on": "Bacillus licheniformis"}, "Serratia marcescens": {"tested_on": "Serratia marcescens"}, "[4]": {"tested_on": "Escherichia coli ATCC 25922"}, "Bacillus subtilis": {"tested_on": "Bacillus subtilis"}, "Escherichia coli": {"tested_on": "Escherichia coli"}, "Priestia flexa": {"tested_on": "Priestia flexa"}, "[5]": {"tested_on": "Klebsiella pneumoniae ATCC 700603"}, "Enterobacter sp.": {"tested_on": "Enterobacter sp."}, "[6]": {"tested_on": "Lactiplantibacillus plantarum ATCC 8014"}, "[7]": {"tested_on": "Bacillus cereus ATCC 14579"}, "[8]": {"tested_on": "Bacillus subtilis ATCC 6633"}, "[9]": {"tested_on": "Acinetobacter baumannii AYE"}, "[10]": {"tested_on": "Staphylococcus aureus NCTC 13616"}, "[11]": {"tested_on": "Enterococcus faecalis NCTC 12201"}, "[12]": {"tested_on": "Acinetobacter baumannii ATCC 17978"}, "[13]": {"tested_on": "Pseudomonas aeruginosa PAO1"}, "[14]": {"tested_on": "Staphylococcus aureus NCTC 6571"}, "Klebsiella pneumoniae M6": {"tested_on": "Klebsiella pneumoniae M6"}, "[15]": {"tested_on": "Enterococcus faecalis NCTC 775"}, "[16]": {"tested_on": "Candida albicans NCPF 3179"}, "[17]": {"tested_on": "Klebsiella pneumoniae NCTC 13368"}, "[18]": {"tested_on": "Pseudomonas aeruginosa NCTC 13437"}, "[19]": {"tested_on": "Staphylococcus aureus NCTC 13277"}, "[20]": {"tested_on": "Candida albicans ATCC 18804"}, "[21]": {"tested_on": "Bacillus subtilis ATCC 6051"}, "Bacillus megaterium Bm11": {"tested_on": "Bacillus megaterium Bm11"}, "[22]": {"tested_on": "Salmonella enterica subsp. enterica serovar Typhimurium LT2"}, "[23]": {"tested_on": "Acinetobacter calcoaceticus Ac11"}, "Escherichia coli D21": {"tested_on": "Escherichia coli D21"}, "[24]": {"tested_on": "Pseudomonas aeruginosa ATCC 27853"}, "[25]": {"tested_on": "Micrococcus luteus ATCC 9341"}, "[26]": {"tested_on": "Staphylococcus epidermidis"}, "[27]": {"tested_on": "Staphylococcus aureus A170"}, "Pseudomonas aeruginosa": {"tested_on": "Pseudomonas aeruginosa"}, "[28]": {"tested_on": "Staphylococcus aureus CCRC 12652"}, "Salmonella enterica": {"tested_on": "Salmonella enterica"}, "Staphylococcus xylosus": {"tested_on": "Staphylococcus xylosus"}, "Escherichia coli BL21": {"tested_on": "Escherichia coli BL21"}, "[29]": {"tested_on": "Salmonella typhimurium CCRC 12947"}, "[30]": {"tested_on": "Vibrio parahaemolyticus CCRC 10806"}, "Citrobacter koseri": {"tested_on": "Citrobacter koseri"}, "[31]": {"tested_on": "Staphylococcus aureus CCRC 15211"}, "[32]": {"tested_on": "Streptococcus alactolyticus"}, "Escherichia coli JM109": {"tested_on": "Escherichia coli JM109"}, "[33]": {"tested_on": "Klebsiella pneumoniae CCRC 10694"}, "Candida tropicalis": {"tested_on": "Candida tropicalis"}}, "note": "“And” between values parts separate entries of the source, which are not always exact repeats. Equal values may be shown once.", "data": [{"smiles": "CC(C)C[C@H](NC(=O)[C@@H](NC(=O)[C@H](CO)NC(=O)[C@H](CC(C)C)NC(=O)[C@@H]1CCCN1C(=O)[C@H](CC(C)C)NC(=O)[C@H](CO)NC(=O)[C@H](CCCCN)NC(=O)[C@H](CO)NC(=O)[C@@H](N)Cc1ccc(O)cc1)C(C)C)C(=O)N[C@@H](CC(N)=O)C(=O)N1CCC[C@H]1C(=O)O", "note": "[YSKSLPLSVLNP]", "values": [{"measurement": "MIC", "setting": "[1]", "value": 3.04, "unit": "µM"}, {"measurement": "MIC", "setting": "[2]", "value": "≥ 97.2", "unit": "µM"}, {"measurement": "MIC", "setting": "[3]", "value": 24.3, "unit": "µM"}, {"measurement": "MIC", "setting": "Staphylococcus aureus", "value": 48.6, "unit": "µM"}, {"measurement": "MIC", "setting": "Bacillus anthracis", "value": "≥ 97.2", "unit": "µM"}, {"measurement": "MIC", "setting": "Bacillus licheniformis", "value": "≥ 97.2", "unit": "µM"}, {"measurement": "MIC", "setting": "Serratia marcescens", "value": 24.3, "unit": "µM"}, {"measurement": "MIC", "setting": "[4]", "value": 6.07, "unit": "µM"}, {"measurement": "MIC", "setting": "Bacillus subtilis", "value": 24.3, "unit": "µM"}, {"measurement": "MIC", "setting": "Escherichia coli", "value": 6.07, "unit": "µM"}, {"measurement": "MIC", "setting": "Priestia flexa", "value": 24.3, "unit": "µM"}, {"measurement": "MIC", "setting": "[5]", "value": 12.1, "unit": "µM"}, {"measurement": "MIC", "setting": "Enterobacter sp.", "value": 12.1, "unit": "µM"}, {"measurement": "MIC", "setting": "[6]", "value": 24.3, "unit": "µM"}, {"measurement": "MIC", "setting": "[7]", "value": "≥ 48.6", "unit": "µM"}, {"measurement": "MIC", "setting": "[8]", "value": 12.1, "unit": "µM"}]}, {"smiles": "CC[C@H](C)[C@H](NC(=O)[C@@H]1CCCN1C(=O)[C@H](CC(C)C)NC(=O)[C@H](CC(C)C)NC(=O)[C@H](CCCCN)NC(=O)[C@@H](N)CCCCN)C(=O)N[C@H](C(=O)N[C@@H](C)C(=O)N[C@@H](CC(N)=O)C(=O)N[C@@H](CC(C)C)C(=O)N[C@@H](CC(C)C)C(=O)N[C@@H](CCCCN)C(=O)N[C@@H](CO)C(=O)N[C@@H](CC(C)C)C(=O)N[C@@H](CC(C)C)C(N)=O)C(C)C", "note": "[KKLLPIVANLLKSLL]", "values": [{"measurement": "MIC", "setting": "[9]", "value": "19.2 µM and ≥ 38.5 µM"}, {"measurement": "MIC", "setting": "[10]", "value": "≥ 77", "unit": "µM"}, {"measurement": "MIC", "setting": "[11]", "value": "≥ 77", "unit": "µM"}, {"measurement": "MIC", "setting": "[12]", "value": "19.2 µM and ≥ 38.5 µM"}, {"measurement": "MIC", "setting": "[13]", "value": "> 77", "unit": "µM"}, {"measurement": "MIC", "setting": "[14]", "value": "≥ 77", "unit": "µM"}, {"measurement": "MIC", "setting": "Klebsiella pneumoniae M6", "value": "≥ 77", "unit": "µM"}, {"measurement": "MIC", "setting": "[15]", "value": "≥ 77", "unit": "µM"}, {"measurement": "MIC", "setting": "[16]", "value": "≥ 77", "unit": "µM"}, {"measurement": "MIC", "setting": "[17]", "value": "≥ 77", "unit": "µM"}, {"measurement": "MIC", "setting": "[18]", "value": "≥ 77", "unit": "µM"}, {"measurement": "MIC", "setting": "[19]", "value": "≥ 77", "unit": "µM"}]}, {"smiles": "CC[C@H](C)[C@H](NC(=O)[C@H](C)NC(=O)[C@H](CCC(=O)O)NC(=O)[C@H](CO)NC(=O)[C@H](Cc1ccccc1)NC(=O)[C@H](CCCCN)NC(=O)[C@H](Cc1ccccc1)NC(=O)[C@H](CO)NC(=O)[C@H](CCC(=O)O)NC(=O)[C@H](C)NC(=O)[C@@H](NC(=O)[C@H](CCCCN)NC(=O)[C@H](CCCCN)NC(=O)[C@@H](NC(=O)[C@@H](NC(=O)[C@H](CC(=O)O)NC(=O)[C@H](Cc1ccccc1)NC(=O)[C@H](CC(C)C)NC(=O)CN)[C@@H](C)CC)[C@@H](C)CC)[C@@H](C)CC)C(=O)N[C@@H](CCCCN)C(=O)N[C@@H](CCCCN)C(=O)N[C@H](C(=O)N[C@H](C(=O)N[C@@H](CC(=O)O)C(=O)N[C@@H](Cc1ccccc1)C(=O)N[C@@H](CC(C)C)C(=O)NCC(=O)O)[C@@H](C)CC)[C@@H](C)CC", "note": "[GLFDIIKKIAESFKFSEAIKKIIDFLG]", "values": [{"measurement": "MIC", "setting": "[3]", "value": "> 128", "unit": "µM"}, {"measurement": "MIC", "setting": "[20]", "value": "≥ 128", "unit": "µM"}, {"measurement": "MIC", "setting": "[4]", "value": 128, "unit": "µM"}]}, {"smiles": "CC[C@H](C)[C@H](NC(=O)[C@H](CCCCN)NC(=O)[C@@H]1CCCN1C(=O)[C@@H](NC(=O)[C@H](CC(C)C)NC(=O)[C@H](C)NC(=O)[C@H](Cc1ccccc1)NC(=O)[C@H](Cc1ccccc1)NC(=O)CN)[C@@H](C)CC)C(=O)N[C@H](C(=O)N[C@@H](CO)C(=O)O)[C@@H](C)CC", "note": "[GFFALIPKIIS]", "values": [{"measurement": "MIC", "setting": "[21]", "value": "≥ 100", "unit": "µM"}, {"measurement": "MIC", "setting": "Bacillus megaterium Bm11", "value": "≥ 100", "unit": "µM"}, {"measurement": "MIC", "setting": "[22]", "value": "≥ 100", "unit": "µM"}, {"measurement": "MIC", "setting": "[23]", "value": "≥ 100", "unit": "µM"}, {"measurement": "MIC", "setting": "Escherichia coli D21", "value": "≥ 100", "unit": "µM"}, {"measurement": "MIC", "setting": "[24]", "value": "> 100", "unit": "µM"}, {"measurement": "MIC", "setting": "[25]", "value": "≥ 100", "unit": "µM"}]}, {"smiles": "CC[C@H](C)[C@H](NC(=O)[C@@H]1CCCN1C(=O)[C@H](CC(C)C)NC(=O)[C@@H](N)CC(C)C)C(=O)N[C@H](C(=O)N[C@@H](C)C(=O)N[C@@H](CC(N)=O)C(=O)N[C@@H](CC(C)C)C(=O)N[C@@H](CC(C)C)C(=O)N[C@@H](CCCCN)C(=O)N[C@@H](CO)C(=O)N[C@@H](CC(C)C)C(=O)N[C@@H](CC(C)C)C(=O)O)C(C)C", "note": "[LLPIVANLLKSLL]", "values": [{"measurement": "MIC", "setting": "[26]", "value": 7.11, "unit": "µM"}, {"measurement": "MIC", "setting": "[27]", "value": 3.55, "unit": "µM"}]}, {"smiles": "CC[C@H](C)[C@H](N)C(=O)N[C@@H](CC(N)=O)C(=O)N[C@@H](CC(C)C)C(=O)N[C@@H](CCCCN)C(=O)N[C@@H](C)C(=O)N[C@H](C(=O)N[C@@H](C)C(=O)N[C@@H](C)C(=O)N[C@@H](Cc1ccccc1)C(=O)N[C@@H](C)C(=O)N[C@@H](CCCCN)C(=O)N[C@@H](CCCCN)C(=O)N[C@@H](CC(C)C)C(=O)N[C@@H](CC(C)C)C(N)=O)[C@@H](C)CC", "note": "[INLKAIAAFAKKLL]", "values": [{"measurement": "MIC", "setting": "Pseudomonas aeruginosa", "value": 84.5, "unit": "µM"}, {"measurement": "MIC", "setting": "[28]", "value": 15.9, "unit": "µM"}, {"measurement": "MIC", "setting": "Salmonella enterica", "value": 10.6, "unit": "µM"}, {"measurement": "MIC", "setting": "Staphylococcus xylosus", "value": 1.32, "unit": "µM"}, {"measurement": "MIC", "setting": "Escherichia coli BL21", "value": 5.28, "unit": "µM"}, {"measurement": "MIC", "setting": "[29]", "value": 21.1, "unit": "µM"}, {"measurement": "MIC", "setting": "[30]", "value": 21.1, "unit": "µM"}, {"measurement": "MIC", "setting": "Citrobacter koseri", "value": 2.64, "unit": "µM"}, {"measurement": "MIC", "setting": "[31]", "value": 21.1, "unit": "µM"}, {"measurement": "MIC", "setting": "[32]", "value": 10.6, "unit": "µM"}, {"measurement": "MIC", "setting": "Escherichia coli JM109", "value": 5.28, "unit": "µM"}, {"measurement": "MIC", "setting": "[33]", "value": 21.1, "unit": "µM"}]}, {"smiles": "CSCC[C@H](NC(=O)[C@@H](N)CC(C)C)C(=O)N[C@H]1CSSC[C@@H](C(=O)N[C@@H](CO)C(=O)N[C@@H](CC(N)=O)C(=O)O)NC(=O)[C@H](CC(=O)O)NC(=O)[C@H](CC(C)C)NC(=O)[C@@H]2CCCN2C(=O)[C@H](Cc2cnc[nH]2)NC(=O)[C@H]([C@@H](C)O)NC1=O", "note": "[LMCTHPLDCSN]", "values": [{"measurement": "MIC", "setting": "Candida tropicalis", "value": 25.9, "unit": "µM"}]}]}
